From patent US20190382396A1, “SALTS OF BICYCLO[1.1.1]PENTANE INHIBITORS OF DUAL LEUCINE ZIPPER (DLK) KINASE FOR THE TREATMENT OF DISEASE” (Board of Regents, The University of Texas System, priority 2018, published 2019)
In brackets after ≈: the same amount, converted by molar mass. Like-named read-outs stand apart in the source and are kept apart here.

How the values were obtained:
Type in all cases: physicochemical
[1] = Solubility of the Example 1 compound in organic solvents; conditions: thermodynamic from solid; for solubility at 2 h: 25 °C, RT; for solubility: 50° C.
Method: Solubility of the Example 1 compound in various organic solvents was determined by the following procedure. […] The mixture was stirred at 800 rpm at 25° C. for 2 hr. If the compound was not dissolved completely by this time, the temperature was then raised to 50° C. and stirring at 800 rpm was continued overnight. If a solid precipitate was present, the solid precipitate was then removed by centrifugation (14,000 RPM, 5 min) and dried under vacuum at 30° C. (Method I). If a solid precipitate was not present, the solvent was removed by evaporation under vacuum at 30° C. (Method II). In either case, the resulting material was evaluated by XRPD.

[2] = Stability (50° C., 40° C./75% RH, light; 1 week); conditions: for XRPD change? / purity: bulk, 1 week
Method: The stability of the free base 1 and the selected salts 8, 9, 10, and 11 was evaluated. For each material, aliquots were set up at each of conditions (50° C., 40° C./75% RH, light) at given time points (initial and 1 week). PXRD diffractograms of the hydrogen fumarate salt 11 is shown in FIG. 17, with trace (a) showing the initial salt, trace (b) showing the salt after light treatment, trace (c) showing the salt after storage at 40° C. and 75% relative humidity for 1 week, and (d) showing the salt after storage at 50° C. for 1 week.

[3] = Solubility in physiologically relevant solutions (SGF, FaSSIF, FeSSIF); conditions: 25±0.5° C.; for solubility at 24 h: 25 °C, thermodynamic from solid
Method: Solubility of the free base 1 and the selected salts 8, 9, 10, and 11 in physiologically relevant solutions were examined. For each material, aliquots were added to 2 ml vials containing 500 uL of either SGF, FaSSIF, or FeSSIF, which were then sealed. The mixtures were kept shaking by thermomixer at 700 rpm, 25±0.5° C. for 24 h to facilitate the dissolution and then centrifuged by 96-well plates at 3000 rpm for 2 min. The filter liquors were diluted with diluents (ACN/water, 50/50) and analyzed by HPLC.

[4] = Dynamic vapor sorption (DVS), hygroscopicity
Method: Dynamic vapor sorption (“DVS”) was performed at 25° C., using approx 10-15 mg of sample and N2 gas at a flow rate of 200 mL/min, dm/dt=0.01% min, minimum dm/dt stability duration of 10 min, max equilibration time of 180 min, drying at 0% RH for 120 min, scanning from 0% RH to 90% RH to 0% RH with a step size of 10% RH.
Total cycling time varied, but in all cases was about 200-250 min.

[5] = Thermogravimetric analysis / DSC weight loss; conditions: <120° C.
Method: Differential scanning calorimetry (“DSC”) was performed with a TA Q2000 instrument, using approx 1 mg of sample in a crimped Al pan, heating from room temperature to 300° C. at a rate of 10° C./min.
Thermogravimetric analysis (“TGA”) was performed with a TA Q5000 instrument, using approx 2-5 mg of sample in an open Pt pan, heating from room temperature to 300° C. at a rate of 10° C./min.

[6] = aqueous with cosolvent or surfactant or cyclodextrin, 1/1 (v/v) Acetone/H2O
[7] = aqueous with cosolvent or surfactant or cyclodextrin, 1/1 (v/v) EtOH/H2O
[8] = organic solvent or mixture, ACN
[9] = organic solvent or mixture, EtOH
[10] = organic solvent or mixture, Heptane
[11] = organic solvent or mixture, MTBE
[12] = organic solvent or mixture, Toluene

## CC(C)c1nc(-c2cnc(N)c(OC(F)(F)F)c2)cn1C12CC(N3CCOCC3)(C1)C2 [Example 1, 5-(2-isopropyl-1-(3-morpholinobicyclo[1.1.1]pentan-1-yl)-1H-imidazol-4-yl)-3-(trifluoromethoxy)pyridin-2-amine]
[1]; [6]
  solubility at 2 h: < 50 mg/mL
  solubility: < 50 mg/mL
[1]; [7]
  solubility at 2 h: < 50 mg/mL
  solubility: < 50 mg/mL
[1]; [8]
  solubility at 2 h: < 50 mg/mL
  solubility: > 50 mg/mL
[1]; organic solvent or mixture, Acetone
  solubility at 2 h: > 50 mg/mL
[1]; organic solvent or mixture, DCM
  solubility at 2 h: > 50 mg/mL
[1]; organic solvent or mixture, DMF
  solubility at 2 h: > 50 mg/mL
[1]; organic solvent or mixture, DMSO
  solubility at 2 h: > 50 mg/mL
[1]; organic solvent or mixture, Dioxane
  solubility at 2 h: > 50 mg/mL
[1]; organic solvent or mixture, EtOAc
  solubility at 2 h: > 50 mg/mL
[1]; [9]
  solubility at 2 h: < 50 mg/mL
  solubility: > 50 mg/mL
[1]; [10]
  solubility at 2 h: < 50 mg/mL
  solubility: < 50 mg/mL
[1]; organic solvent or mixture, IPA
  solubility at 2 h: > 50 mg/mL
[1]; organic solvent or mixture, MEK
  solubility at 2 h: > 50 mg/mL
[1]; [11]
  solubility at 2 h: < 50 mg/mL
  solubility: < 50 mg/mL
[1]; organic solvent or mixture, MeOH
  solubility at 2 h: > 50 mg/mL
[1]; organic solvent or mixture, THF
  solubility at 2 h: > 50 mg/mL
[1]; [12]
  solubility at 2 h: < 50 mg/mL
  solubility: < 50 mg/mL
[1]; water, H2O
  solubility at 2 h: < 50 mg/mL
  solubility: < 50 mg/mL
[2]; 40° C., 75% RH
  XRPD change?: yes
  purity: 99.66%
[2]; 50° C.
  XRPD change?: yes
  purity: 99.41%
[2]; initial (before storage)
  initial purity: 99.59%
[2]; light
  XRPD change?: yes (1)
  purity: 96.61%
[3]; simulated gastric fluid, SGF, read-out: Solubility SGF Conc
  solubility at 24 h: 4.56 mg/mL (≈ 10.4 mM)
[3]; FaSSIF, read-out: Solubility FaSSIF Conc
  solubility at 24 h: 0.0713 mg/mL (≈ 0.163 mM)
[3]; FeSSIF, read-out: Solubility FeSSIF Conc
  solubility at 24 h: 0.473 mg/mL (≈ 1.08 mM)
[3]; FaSSIF
  FaSSIF pH after 24 h: 6.48
[3]; FeSSIF
  FeSSIF pH after 24 h: 5.00
[3]; SGF
  SGF pH after 24 h: 3.83
[4]; DVS, 25° C., 0-40% RH
  Hygroscopicity (0-40% RH): 0.11%
[4]; DVS, 25° C., 0-90% RH
  Hygroscopicity (0-90% RH): 2.44%
[4]; form change after DVS
  Hygroscopicity; form change: no change
[5]
  weight loss (TGA, %): 0.29% (<120° C.)
